Source: patent US5723461A, “Quinoxalines, a process for their preparation and their use” (Hoechst Aktiengesellschaft, priority 1994, dated 1998)
Converted amounts (≈) assume the structure as drawn.

Tests used:
HIV = experiment: Testing of preparations against HIV in cell culture (T-cell culture assay); format: cell-based; settings: Human immunodeficiency virus 1, 72 h, HIV-infected lymphocytes, 3 days at 37° C., lowest concentration at which no giant cells occurred, read-out: MIC EC50
Protocol: Testing of preparations against HIV in cell culture
Description of the method:
Complete medium additionally contains 20% fetal calf serum and 40 IU/ml recombinant interleukin 2.
Lymphocytes, which have been isolated from fresh donor blood by means of Ficoll® gradient centrifugation, are cultured, for 36 hours at 37° C. and under 5% CO2, in complete medium which additionally contains […] phytohemagglutinin (Wellcome). After 10% DMSO has been added, the cells are frozen at a cell density of 5×10^6 and stored in liquid nitrogen. For the experiment, the cells are thawed, washed in the RPMI medium and cultured for 3 to 4 days in the complete medium.
The test preparations were dissolved in DMSO at a concentration of 16.7 mg/ml, and these solutions were diluted with complete medium to a concentration of 1 mg/ml. 0.4 ml of medium was initially introduced into 24-well multiwell plates. After 0.1 ml of the dissolved preparation had been added to the upper row of the plate, a geometric dilution series was produced by transferring 0.1 ml on each occasion. Preparation-free controls contained 0.4 ml of complete medium containing 0.5% DMSO.
Lymphocyte cultures having a cell count of 5×10^5 cells/ml were infected by adding a 1/50 volume of the supernatant from HIV-infected lymphocyte cultures. The titer of these culture supernatants was determined by end-point dilution to be 1-5×10^6 infectious units/ml. After having been incubated at 37° C. for 30 min, the infected lymphocytes were centrifuged off and taken up once again in the same volume of medium. 0.6 ml of this cell suspension was added to each of the wells in the test plate. The assay mixtures were incubated at 37° C. for 3 days.
The infected cell cultures were examined under the microscope for the presence of giant cells, which are indicative of active viral replication in the culture. The lowest preparation concentration at which no giant cells occurred was determined and taken to be the inhibitory concentration against HIV. As a control, the supernatants from the culture plates were assayed for the presence of HIV antigen using an HIV antigen test in accordance with the manufacturer's (Organon) instructions.

[1] = biological target: T1, HIV reverse transcriptase (Human immunodeficiency virus type 1 group M subtype B, UniProt P04585); experiment: Inhibition of HIV reverse transcriptase (scintillation proximity assay); format: biochemical; settings: Reverse transcriptase assay (SPA), 60 min, 37° C.
T1 construct: purchased HT Biotechnology Ltd., Cambridge, UK; host or cells: E. coli
Protocol: Examination of the substances for their ability to inhibit HIV reverse transcriptase
The activity of the reverse transcriptase (RT) was determined using a scintillation proximity assay (SPA).
The reagent kit for the RT SPA was obtained from Amersham/Buchler (Braunschweig). The RT enzyme (derived from HIV and cloned in E. coli) was obtained from HT Biotechnology Ltd., Cambridge, UK.
The test was carried out in accordance with the manufacturer's (Amersham) methods manual, with the following modifications:
Bovine serum albumin was added to the assay buffer to a final concentration of 0.5 mg/ml.
The test was carried out in Eppendorf tubes using an assay mixture volume of 100 μl.
The manufacturer's RT concentrate (5000 U/ml) was diluted to an activity of 15 U per ml using 20 mM tris-HCl buffer, pH 7.2, 30% glycerol.
The assay mixtures were incubated for 60 min (37° C.).
After the reaction had been stopped and "developed" with the bead suspension, 130 μl of assay mixture were transferred into 4.5 ml of 10 mM tris-HCl buffer, pH 7.4, 0.15M NaCl and the tritium activity was measured in a β-counter.
In order to carry out a preliminary test of their inhibitory activity, the substances were dissolved in DMSO (stock solution, c=1 mg/ml) and tested when diluted 10^-1, 10^-2, 10^-3 etc. in DMSO.
In order to determine IC50 values, the stock solutions of inhibitor were further diluted in 50 mM tris-HCl buffer, pH 8, and tested at suitable concentrations.
The concentration associated with 50% inhibition of the enzyme was ascertained from the plot of RT activity against log Cinh.

Compound	EC50 (HIV)	IC50 [1]
CCCCOC(=O)N1c2cc(F)ccc2NC(=S)[C@@H]1CC [Example 140i]	10 ng/mL (≈ 0.0322 µM)	70.9 nM
CCC[C@H]1C(=S)Nc2ccc(OC)cc2N1C(=O)OC(C)C [Example 100]	4 ng/mL (≈ 0.0124 µM)	49.6 nM
COc1ccc2c(c1)N(C(=O)OC(C)C)[C@@H](CSC)C(=S)N2 [Example 85, S-4-Isopropoxycarbonyl-6-methoxy-3-(methylthiomethyl)-3,4-dihydroquinoxalin-2(1H)-thione]	2 ng/mL (≈ 0.00587 µM)	23.5 nM
C=C(C)OC(=O)N1c2cc(Cl)ccc2NC(=O)[C@@H]1CC [Example 57]	1 ng/mL (≈ 0.00339 µM)	33.9 to 339 nM
CC[C@H]1C(=S)Nc2ccc(Cl)cc2N1C(=O)OC(C)C [Example 91]	2 ng/mL (≈ 0.00639 µM)	12.8 nM
C=C(C)OC(=O)N1c2cc(OC)ccc2NC(=O)[C@@H]1CSC [Example 68]	8 ng/mL (≈ 0.0248 µM)	49.6 nM
CCC(C)OC(=O)N1c2cc(OC)ccc2NC(=S)[C@@H]1CSC (stereo partly drawn) [Example 140f]	8 ng/mL (≈ 0.0226 µM)	53.6 nM
CCC[C@H]1C(=O)Nc2ccccc2N1C(=O)OC(C)C [Example 31]	50 ng/mL (≈ 0.181 µM)	–
CCOC(=O)N1c2cc(Cl)ccc2NC(=O)[C@@H]1CSC [Example 61]	2 ng/mL (≈ 0.00635 µM)	31.8 to 318 nM
CSC[C@H]1C(=S)Nc2ccc(F)cc2N1C(=O)OC(C)C [Example 98]	3 ng/mL (≈ 0.00913 µM)	36.5 nM
CCCOC(=O)N1c2cc(Cl)ccc2NC(=O)[C@@H]1CSC [Example 60]	40 ng/mL (≈ 0.122 µM)	30.4 nM
C=C(C)OC(=O)N1c2cc(Cl)ccc2NC(=S)[C@@H]1CC [Example 113]	0.8 ng/mL (≈ 0.00257 µM)	19.3 nM
C=CCOC(=O)N1c2cc(Cl)ccc2NC(=O)[C@@H]1CC [Example 58]	10 ng/mL (≈ 0.0339 µM)	33.9 to 339 nM
CC[C@H]1C(=O)Nc2ccc(F)cc2N1C(=O)OC(C)C [Example 39]	8 ng/mL (≈ 0.0285 µM)	71.4 nM
COc1ccc2c(c1)N(C(=O)OCC(C)C)[C@@H](CSC)C(=S)N2 [Example 140g]	40 ng/mL (≈ 0.113 µM)	48 nM
C=C(C)OC(=O)N1c2cc(OC)ccc2NC(=S)[C@@H]1CSC [Example 124]	< 8 ng/mL	–
CCC(C)OC(=O)N1c2cc(OC)ccc2NC(=O)[C@@H]1CSC (stereo partly drawn) [Example 84g]	–	349 nM
C=C(C)OC(=O)N1c2cc(Cl)ccc2NC(=O)[C@@H]1CSC [Example 59]	20 ng/mL (≈ 0.0612 µM)	55.1 nM
CC[C@H]1C(=S)Nc2ccc(F)cc2N1C(=O)OC [Example 140h]	10 ng/mL (≈ 0.0373 µM)	29.8 nM
COc1ccc2c(c1)N(C(=O)OC(C)C)[C@@H](CSC)C(=O)N2 [Example 29, S-4-Isopropoxycarbonyl-6-methoxy-3-(methylthiomethyl)-3,4-dihydroquinoxalin-2(1H)-one]	< 8 ng/mL	30.8 to 308 nM
CCCC[C@H]1C(=S)Nc2ccccc2N1C(=O)OC(C)C [Example 88]	< 40 ng/mL	–
CC[C@H]1C(=O)Nc2ccccc2N1C(=O)OC(C)C [Example 30]	< 40 ng/mL	–
COC[C@H]1C(=S)Nc2ccc(OC)cc2N1C(=O)OC(C)C [Example 104]	8 ng/mL (≈ 0.0247 µM)	108 nM
CCOc1ccc2c(c1)N(C(=O)OC(C)C)[C@@H](CSC)C(=O)N2 [Example 52]	< 8 ng/mL	29.5 to 295 nM
CCC[C@H]1C(=S)Nc2ccc(F)cc2N1C(=O)OC(C)C [Example 96]	80 ng/mL (≈ 0.258 µM)	51.5 nM
CCCCOC(=O)N1c2cc(F)ccc2NC(=O)[C@@H]1CC [Example 84l]	80 ng/mL (≈ 0.272 µM)	510 nM
CCCOc1ccc2c(c1)N(C(=O)OC(C)C)[C@@H](CSC)C(=O)N2 [Example 54]	40 ng/mL (≈ 0.113 µM)	–
CSC[C@H]1C(=O)Nc2ccc(F)cc2N1C(=O)OC(C)C [Example 42]	< 8 ng/mL	–
CCC(C)OC(=O)N1c2cc(F)ccc2NC(=O)[C@@H]1CC (stereo partly drawn) [Example 84j]	< 80 ng/mL	296 nM
